Measured values reported in patent publication US7566453B2, “Methods for treating melanomas” (Chugai Seiyaku Kabushiki Kaisha, priority 1998, dated 2009).

Experiments:
[1] = tested on: KPMM2, a human myeloma cell line; assay: Human myeloma cell-implanted SCID mouse system (Example 2): survival, disease-free ratio, serum M protein; format: in vivo; details: for Life-elongation ratio* (%): 100 × (drug administration group/drug non-administration group); for Survival period: mean ± standard error; for None disease ratio: survival ratio without disease on day 120
Excerpt: (§1) For evaluation of antitumor activity, a xenograft model was used. Thus, KPMM2, a human myeloma cell line derived from ascites of a patient with multiple myeloma was implanted to a male SCID mouse (FOX CHASE C. B17/Icr-Scid Jcl, purchased from Nippon Klea) via the tail vein. At this time, the tumor cells grow in the bone marrow and come to produce myeloma protein (M protein) in the peripheral blood. Furthermore, this model system is very close to an actual clinical condition in that it develops major symptoms of multiple myeloma in humans such as bone disorders, elevated blood calcium, and the like.
Single cell suspension of myeloma cells for implantation was prepared by passing through a mesh the well minced KPMM2 cells that have been maintained in vivo. Cell density was adjusted to 3×10^7/ml, which was implanted at 0.2 ml per mouse via the tail vein ([…]). The day when the cells were implanted was set at day 0.
This was given to mice at 0.2 ml per animal via the tail vein on day 8 (1 mg per mouse).
(§2) Melphalan (L-PAM, manufactured by Sigma Chemical Co.) that was suspended at 0.3 or 0.1 mg/ml in 0.2% CMC (carboxymethylcellulose) solution in water was used. This was given orally at 0.1 ml per 10 g body weight of mouse (3 or 1 mg/kg weight) for 5 consecutive days starting on day 1.
The experiment was carried out on the following six groups: (1) the melphalan and antibody non-administration group; (2) the 1 mg/kg melphalan single-drug administration group; (3) the 3 mg/kg melphalan single-drug administration group; (4) antibody single-drug administration group; (5) the 1 mg/kg melphalan and antibody combined administration group; and (6) the 3 mg/kg melphalan and antibody combined administration group. Group 1 included 9 mice, whereas each of the other groups included 7 mice. Furthermore, tumor was not implanted on mice of the same lineage and purchased on the same day, which were used as negative control for M protein detection.
Indices of the drug efficacy included the survival period, the survival ratio without disease on day 120, and the amount of M protein on day 30. For analysis using a survival curve, a generalized Wilcoxon's test (SPSS for windows ver. 6, SPSS inc.) was used. A significance level of 5% or lower was considered to be significant.
Serum M protein was detected as human IgG using the ELISA method. First, mouse serum was dispensed into a 96-well micro plate that had previously been coated with anti-human IgG antiserum and was allowed to stand. Then alkaline phosphatase-conjugated […] was bound thereto, and SIGMA104 phosphatase substrate was added for color development, absorbance of which was read using a microplate reader. M protein content in the serum was calculated using the standard curve obtained from normal human IgG.

human IL-6 receptor = target: T1, human IL-6 receptor (Homo sapiens, UniProt P08887); assay: Inhibition of binding of human IL-6 to human IL-6 receptor; details: compared with mouse antibody and chimeric antibody
T1 sequence (P08887 20-468): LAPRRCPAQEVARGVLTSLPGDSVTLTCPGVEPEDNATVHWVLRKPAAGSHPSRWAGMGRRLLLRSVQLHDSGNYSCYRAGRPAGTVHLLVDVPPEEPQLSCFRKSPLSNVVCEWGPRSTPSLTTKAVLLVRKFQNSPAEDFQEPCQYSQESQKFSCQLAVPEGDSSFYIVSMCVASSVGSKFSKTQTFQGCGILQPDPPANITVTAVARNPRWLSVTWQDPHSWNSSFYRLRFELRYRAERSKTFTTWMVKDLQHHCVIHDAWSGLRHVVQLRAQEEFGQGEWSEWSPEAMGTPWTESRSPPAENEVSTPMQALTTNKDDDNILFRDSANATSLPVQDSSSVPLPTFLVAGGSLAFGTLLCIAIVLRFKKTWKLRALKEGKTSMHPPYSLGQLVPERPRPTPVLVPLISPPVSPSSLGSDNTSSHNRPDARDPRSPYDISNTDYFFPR
Excerpt: In order to express genes of L chain and H chain of the reshaped human PM-1 antibody thus constructed, DNA encoding the L chain or the H chain was separately inserted into a vector containing the human elongation factor 1α (HEF-1α) promoter, and a vector expressing the L chain or the H chain of the reshaped human PM-1 (hPM-1) antibody was constructed. By simultaneously inserting these two expression vectors into CHO cells, a cell line that produces reshaped human PM-1 antibody (hPM-1) was established.

[2] = Body weight change (toxicity) of myeloma-implanted mice, Example 3; format: in vivo, SCID mouse; details: melphalan administration (FIG. 16)
Protocol: For evaluation of antitumor effects, a xenograft model animal that was produced by implanting KPMM2 cells via the tail vein was used as in Working example 2. Thus, single-cell suspensions which were prepared by passing through a mesh KPMM2 cells that were minced after having been maintained in vivo were implanted at 0.2 ml per mouse via the tail vein (6×10^6 cells per mouse). The day when the cells were implanted was set at day 0.
With regard to anti-human IL-6 receptor antibody hPM-1, a stock solution that had been preserved at 6.57 mg/ml was diluted in sodium phosphate buffer to make each solution of 5, 1, 0.2, and 0.04 mg/ml. They were given to mice at 0.1 ml per 10 g body weight of mouse via the tail vein on day 14 to create the 50, 10, 2, and 0.4 mg/kg administration groups. The control group received the same buffer without antibody in a similar manner. […]
The experiment was carried out on the following 10 groups: (A) the melphalan and the antibody non-administration group; (B) the melphalan single-drug administration group; (C) the each dose of antibody single-drug administration group , 4 groups (50, 10, 2, 0.4 mg/kg weight); and, (D) the melphalan and the each dose of antibody combined administration group, 4 groups (50, 10, 2, 0.4 mg/kg weight). […] The amount of M protein was calculated as described in Example 2.

[3] = Body weight change (toxicity) of myeloma-implanted mice, Example 2; format: in vivo, SCID mouse; details: melphalan administration (FIG. 10)
Excerpt: as §1
With regard to anti-human IL-6 receptor antibody, a stock solution that had been preserved at 12.1 mg/ml was diluted in sterile phosphate buffer to make 5 mg/ml. This was given to mice at 0.2 ml per animal via the tail vein on day 8 (1 mg per mouse). The control group received sterile phosphate buffer containing no antibody in a similar manner.
as §2, with “1. The control group received 0.2% CMC solution in water containing no melphalan in a similar manner. […]” for “1.”

[4] = hPM-1 1 mg per mouse via the tail vein on day 8, CMC control
[5] = melphalan 1 mg/kg orally, 5 days from day 1, no antibody
[6] = melphalan 3 mg/kg orally, 5 days from day 1, no antibody

Compound	life elongation effect as compared to the non-administration group ([1]; antibody single-drug administration, 1 mg per mouse on day 8 (FIG. 7))	Life-elongation ratio* (%) [1, 4] [%]	Survival period [1, 4]	None disease ratio ([1]; hPM-1 1 mg per mouse on day 8, CMC control)	inhibition of the binding of human IL-6 to human IL-6 receptor (human IL-6 receptor)	life elongation effect as compared to the non-administration group ([1]; 1 mg/ml melphalan administration group (FIG. 7))	life elongation effect as compared to the non-administration group ([1]; 3 mg/kg melphalan single-drug administration (FIG. 9))	Survival period ([1]; melphalan 1 mg/kg orally, 5 consecutive days from day 1, no antibody)	Life-elongation ratio* (%) [1, 5] [%]	Survival period ([1]; melphalan 3 mg/kg orally, 5 consecutive days from day 1, no antibody)	Life-elongation ratio* (%) [1, 6] [%]	None disease ratio [1, 5]	None disease ratio [1, 6]	toxicity (inhibition of body weight gain) [2]	toxicity (inhibition of body weight gain) [3]
hPM-1: reshaped human PM-1 antibody: CDRs of mouse anti-IL-6 receptor antibody PM-1 grafted to human antibody, produced in CHO cells	no life elongation effect	118	55.1 ± 5.2	0/7	inhibited the binding of human IL-6 to human IL-6 receptor in a similar manner to that of mouse antibody and chimeric antibody										
NC(Cc1ccc(N(CCCl)CCCl)cc1)C(=O)O (stereo not drawn) [melphalan]						no life elongation effect	significant life elongation effect	47.3 ± 3.1	101	84.1 ± 9.1	175	0/7	2/7	caused toxicity to mice and inhibited body weight gain	caused toxicity in mice and inhibited body weight gain
